Assays:
HL-1 cells [1] = assay: HL-1 cell growth and proliferation; assay type: cell-based, murine; settings: compared to HL-1 cells incubated with vehicle, FIG. 10
Description: (§1) HL-1 cells are obtained from Dr. W. C. Claycomb, Louisiana State University Medical Center, New Orleans, La. HL-1 cells (passages 55-75) are maintained at 37° C. under a 5% C02/air atmosphere in Claycomb medium (JRL Bioscience) supplemented with 10% fetal bovine serum, 0.29 mg/mL L-glutamine, 100 units/mL penicillin, 100 μg/mL streptomycin (all Gibco), and 0.1 mM norepinephrine (Sigma). The medium can be replaced approximately every 24 hours. HL-1 cells were grown in T25 culture flasks which were precoated overnight with 2 μg/cm fibronectin/0.02% gelatin solution. […]
HL-1 cells are grown in 10% FCS-supplemented medium or medium supplemented with 1% ITS and treated with either 0.1% EtOH (control vehicle), 1, 10 or 100 nM 1,25(OH) 2D3, 100 nM PMA or 1 mM PMA or 1 mM 24,25(OH) 2D3 or 25(OH)D3 for 2 or 4 days. At each time point the myocytes are removed from the dish using a Trypsin-EDTA solution (Sigma Chemical, St. Louis, Mo.) and counted using a Coulter Counter (Model ZF, Coulter Electronics, Hialeah, Fla.). Protein levels can be determined after 2 days using the Bradford protein assay (14). […] The HL-1 cells can then be examined on a flow cytometer (Coulter Elite, Coulter Electronics, Hialeah, Fla.) and cell cycle distribution can be determined by using MODFIT (v. 5.2).

HL-1 cells [2] = assay: HL-1 cell morphology by light microscopy; assay type: cell-based, murine; settings: FIG. 11, versus control vehicle
Description: In some embodiments, screening assays can be included to determine whether the test compound can alter the structural morphology of the cardiac myocyte in cell culture. HL-1 cells can be incubated in the presence and absence of a test compound to determine whether structural changes can be observed by light microscopy.
as §1, with “solution. HL-1 cells were maintained until they reached confluence at which time the cells were removed by trypsinization and passed into another T25 culture flask coated with gelatin/fibronectin. Cells can be ultimately passed into T75 flasks to increase the number of cells prior to experimentation. Vitamin D experiments are performed in either T75 flasks, or Lab-Tech 2-well slides (for immunohistochemistry), 24 hours after a 1:2 split of confluent cells.” for “solution.”

For C=C1CC[C@H](O)C/C1=C/C=C1\CCC[C@]2(C)[C@@H]([C@H](C)CCCC(C)C)CC[C@@H]12 [Vitamin D3], the “inhibition of HL-1 growth / cellular proliferation” value (HL-1 cells [1]) was “dose dependent inhibition of cellular proliferation”, the “inhibition of HL-1 growth / cellular proliferation” value (HL-1 cells [1]; listed as Vit D) was “dose dependent inhibition of HL-1 growth” and the “structural morphology of HL-1 cells” value (HL-1 cells [2]) was “growth and presence of structural appendages called dendrites”.

From US20100190187A1, “Screening Assays for Antagonists and Analyses of Cardiac Hypertrophy” (The Regents of the University of Michigan Office of …, priority 2006, published 2010)
